Biological target: T1, bovine serum albumin (BSA) (Bos taurus, UniProt P02769)
T1 construct: gene ALB; PDB 4F5S used for docking only
Experiment: intrinsic fluorescence quenching (ex […] nm, em […] nm), double-logarithmic plot
Assay type: binding
Settings: 310 K, pH 7.4, 10 mM Tris-HCl, 150 mM NaCl, 2 uM BSA, 0.1% acetonitrile, no site probe; double-log

T1 sequence (P02769 25-607): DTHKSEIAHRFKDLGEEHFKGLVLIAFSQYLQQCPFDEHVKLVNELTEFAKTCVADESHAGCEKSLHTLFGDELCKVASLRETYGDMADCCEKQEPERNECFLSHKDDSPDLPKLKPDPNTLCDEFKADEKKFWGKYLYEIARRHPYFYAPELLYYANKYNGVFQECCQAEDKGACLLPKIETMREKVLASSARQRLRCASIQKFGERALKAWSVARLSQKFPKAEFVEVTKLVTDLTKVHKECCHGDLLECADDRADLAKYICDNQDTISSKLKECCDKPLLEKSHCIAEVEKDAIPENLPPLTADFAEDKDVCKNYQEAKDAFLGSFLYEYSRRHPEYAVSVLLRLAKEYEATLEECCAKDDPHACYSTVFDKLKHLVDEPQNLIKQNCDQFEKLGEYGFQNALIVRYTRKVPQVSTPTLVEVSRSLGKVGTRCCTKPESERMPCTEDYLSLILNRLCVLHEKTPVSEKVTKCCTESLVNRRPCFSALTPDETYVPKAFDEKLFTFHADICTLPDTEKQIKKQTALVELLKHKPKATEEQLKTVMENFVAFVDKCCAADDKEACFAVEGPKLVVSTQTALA

SMILES: O=C1C2CC=CCC2C(=O)N1SC(Cl)(Cl)Cl (centres unmarked) [compound 2, 2-(trichloromethylsulfanyl)-3a,4,7,7a-tetrahydroisoindole-1,3-dione]
- Ka (M^-1): 14,581 ± 1.40 M^-1

SMILES: CCCSP(=O)(OCC)Oc1ccc(Br)cc1Cl (centres unmarked) [compound 1, 4-bromo-2-chloro-1-[ethoxy(propylsulfanyl)phosphoryl]oxybenzene]
- Ka: 3897 ± 1.49 M⁻¹

Source: PMC10799918, “Revealing the mechanistic interactions of profenofos and captan pesticides with serum protein via biophysical and computational investigations” (Scientific Reports, 2024)
